# From patent US9725449B2, “Tricyclic compounds as anticancer agents” (BRISTOL-MYERS SQUIBB COMPANY, priority 2015, dated 2017)
# Molecular target: BRD4 (Homo sapiens, UniProt O60885)
# Assay: Time resolved fluorescence resonance energy transfer (TR-FRET) binding assay, bromodomain BRD4
# Settings: one of the FRET assays described; read-out: FRET BRD4 IC50
row,SMILES,IC50 [nM]
1,"[2H]C([2H])([2H])N1CCN(c2ccc3c4ncc(-c5c(C)nnn5C)cc4n([C@H](c4ccccc4F)C4CCOCC4)c3n2)CC1 [Example 250, 5-(Dimethyl-1H-1,2,3-triazol-5-yl)-8-[(S)-(2-fluorophenyl)(oxan-4-yl)methyl]-11-[4-(^2H3)methylpiperazin-1-yl]-3,8,10-triazatricyclo[7.4.0.0^2,^7]trideca-1(13),2(7),3,5,9,11-hexaene]",< 10
2,"CCCC(c1ccc(F)cn1)n1c2cc(-c3c(C)nnn3C)ncc2c2ncc(C(C)(C)O)cc21 (single isomer, unassigned) [Example 376]",< 10
3,"[2H]C([2H])([2H])c1nnn(C)c1-c1cnc2c3ccc(-c4c(C([2H])([2H])[2H])nnn4C)nc3n(C(c3ccccc3)C3CCC(F)(F)CC3)c2c1 (stereo not drawn) [Example 260, 8-[(4,4-Difluorocyclohexyl)(phenyl)methyl]-5,11-bis[4-(^2H3)methyl-1-methyl-H-1,2,3-triazol-5-yl]-3,8,10-triazatricyclo[7.4.0.0^2,^7]trideca-1(13),2(7),3,5,9,11-hexaene]",< 10
4,"Cc1nnn(C)c1-c1cnc2c3ccc(C(C)(C)O)nc3n([C@H](c3ccccc3)C3CCOCC3)c2c1 [Example 174, 2-[5-(Dimethyl-1H-1,2,3-triazol-5-yl)-8-[(S)-oxan-4-yl(phenyl)methyl]-3,8,10-triazatricyclo[7.4.0.0^2,^7]trideca-1(9),2(7),3,5,10,12-hexaen-11-yl]propan-2-ol]",< 1
5,"[2H]C([2H])([2H])c1nnn(C)c1-c1cnc2c3cnc(N4CCN(C)CC4)cc3n([C@H](c3ccccc3F)C3CCOCC3)c2c1 [Example 244, 8-[(S)-(2-Fluorophenyl)(oxan-4-yl)methyl]-5-[4-(^2H3)methyl-1-methyl-1H-1,2,3-triazol-5-yl]-11-(4-methylpiperazin-1-yl)-3,8,12-triazatricyclo[7.4.0.0^2,^7]trideca-1(13),2(7),3,5,9,11-hexaene]",< 10
6,"CCc1nnn(C)c1-c1cnc2c3cnc(C(C)(C)O)cc3n([C@H](c3ccccc3)C3CCOCC3)c2c1 [Example 340, 2-[5-(4-Ethyl-1-methyl-1H-1,2,3-triazol-5-yl)-8-[(S)-oxan-4-yl(phenyl)methyl]-3,8,12-triazatricyclo[7.4.0.0^2,^7]trideca-1(9),2(7),3,5,10,12-hexaen-11-yl]propan-2-ol]",< 10
7,"[2H]C([2H])([2H])c1nnn(C)c1-c1cnc2c3ccc(Cl)nc3n(C(c3ccccc3)C3CCC(F)(F)CC3)c2c1 (stereo not drawn) [Example 259, 11-Chloro-8-[(4,4-difluorocyclohexyl)(phenyl)methyl]-5-[4-(^2H3)methyl-1-methyl-1H-1,2,3-triazol-5-yl]-3,8,10-triazatricyclo[7.4.0.0^2,^7]trideca-1(13),2(7),3,5,9,11-hexaene]",< 1500
8,"[2H]C([2H])([2H])c1nnn(C)c1-c1cnc2c3c(OC)ncc(C(C)(C)O)c3n(C(c3ccccc3)C3CCC(F)(F)CC3)c2c1 (single isomer, unassigned) [Example 282, 2-{8-[(4,4-Difluorocyclohexyl)(phenyl)methyl]-13-methoxy-5-[4-(^2H3)methyl-1-methyl-1H-1,2,3-triazol-5-yl]-3,8,12-triazatricyclo[7.4.0.0^2,^7]trideca-1(9),2,4,6,10,12-hexaen-10-yl}propan-2-ol]",< 1
9,"[2H]C([2H])([2H])c1nnn(C)c1-c1cnc2c3c(OC)ncc(C(C)(C)O)c3n([C@H](c3ccccc3)C3CCOCC3)c2c1 [Example 138, 2-{13-Methoxy-5-[4-(^2H3)methyl-1-methyl-1H-1,2,3-triazol-5-yl]-8-[(S)-oxan-4-yl(phenyl)methyl]-3,8,12-triazatricyclo[7.4.0.0^2,^7]trideca-1(13),2(7),3,5,9,11-hexaen-10-yl}propan-2-ol]",< 10
10,"[2H]C([2H])([2H])c1nnn(C)c1-c1cnc2c3c(NCC(F)F)nccc3n([C@H](c3ccccc3)C3CCOCC3)c2c1 [Example 133, N-(2,2-Difluoroethyl)-5-[4-(^2H3)methyl-1-methyl-1H-1,2,3-triazol-5-yl]-8-[(S)-oxan-4-yl(phenyl)methyl]-3,8,12-triazatricyclo[7.4.0.0^2,^7]trideca-1(13),2(7),3,5,9,11-hexaen-13-amine]",< 1
11,"CC(=O)c1cc2c(cn1)c1ncc(-c3c(C)noc3C)cc1n2[C@H](c1ccc(F)cc1)C1CCOCC1 [Example 330, 1-[5-(Dimethyl-1,2-oxazol-4-yl)-8-[(S)-(4-fluorophenyl)(oxan-4-yl)methyl]-3,8,12-triazatricyclo[7.4.0.0^2,^7]trideca-1(9),2(7),3,5,10,12-hexaen-11-yl]ethan-1-one]",< 10
12,"[2H]C([2H])([2H])c1nnn(C)c1-c1cnc2c3ccc(N4CCS(=O)(=O)CC4)nc3n([C@H](c3ccccc3)C3CCOCC3)c2c1 [Example 185, 4-{5-[4-(^2H3)Methyl-1-methyl-1H-1,2,3-triazol-5-yl]-8-[(S)-oxan-4-yl(phenyl)methyl]-3,8,10-triazatricyclo[7.4.0.0^2,^7]trideca-1(9),2(7),3,5,10,12-hexaen-11-yl}-1λ^6,4-thiomorpholine-1,1-dione]",< 10
13,"[2H]C([2H])([2H])c1nnn(C)c1-c1cnc2c3c(NCC(F)(F)F)cncc3n([C@H](c3ccccc3)C3CCOCC3)c2c1 [Example 302, 5-[4-(^2H3)Methyl-1-methyl-1H-1,2,3-triazol-5-yl]-8-[(S)-oxan-4-yl(phenyl)methyl]-N-(2,2,2-trifluoroethyl)-3,8,11-triazatricyclo[7.4.0.0^2,^7]trideca-1(9),2(7),3,5,10,12-hexaen-13-amine]",< 1
14,"[2H]C([2H])([2H])c1nnn(C)c1-c1cnc2c3c(OC(C)C)ncc(S(C)(=O)=O)c3n([C@H](c3ccccc3F)C3CCOCC3)c2c1 [Example 80, 8-[(S)-(2-Fluorophenyl)(oxan-4-yl)methyl]-10-methanesulfonyl-5-[4-(^2H3)methyl-1-methyl-1H-1,2,3-triazol-5-yl]-13-(propan-2-yloxy)-3,8,12-triazatricyclo[7.4.0.0^2,^7]trideca-1(13),2(7),3,5,9,11-hexaene]",< 1
15,"[2H]C([2H])([2H])c1onc(C)c1-c1cnc2c3c(OC)ncc(S(=O)(=O)C([2H])([2H])[2H])c3n(C(c3ncccc3F)C3CCOCC3)c2c1 (stereo not drawn) [Example 67, 8-[(3-Fluoropyridin-2-yl)(oxan-4-yl)methyl]-10-(^2H3)methanesulfonyl-13-methoxy-5-[5-(^2H3)methyl-3-methyl-1,2-oxazol-4-yl]-3,8,12-triazatricyclo[7.4.0.0^2,^7]trideca-1(13),2(7),3,5,9,11-hexaene]",< 1500
16,"[2H]C([2H])([2H])c1nnn(C)c1-c1cnc2c3c(OC)ncc(S(C)(=O)=O)c3n(C(c3ncccc3F)C3CCOCC3)c2c1 (stereo not drawn) [Example 65, 8-[(3-Fluoropyridin-2-yl)(oxan-4-yl)methyl]-10-methanesulfonyl-13-methoxy-5-[4-(^2H3)methyl-1-methyl-1H-1,2,3-triazol-5-yl]-3,8,12-triazatricyclo[7.4.0.0^2,^7]trideca-1(13),2(7),3,5,9,11-hexaene]",< 1500
17,"CCS(=O)(=O)Nc1ncc(S(C)(=O)=O)c2c1c1ncc(-c3c(C)noc3C)cc1n2[C@H](c1ccccc1)C1CCOCC1 [Example 99, N-[5-(Dimethyl-1,2-oxazol-4-yl)-10-methanesulfonyl-8-[(S)-oxan-4-yl(phenyl)methyl]-3,8,12-triazatricyclo[7.4.0.0^2,^7]trideca-1(13),2(7),3,5,9,11-hexaen-13-yl]ethane-1-sulfonamide]",< 1
18,"CC(=O)c1ccc2c3ncc(-c4c(C)nnn4C)cc3n([C@H](c3ccccc3)C3CCOCC3)c2n1 [Example 171, 1-[5-(Dimethyl-1H-1,2,3-triazol-5-yl)-8-[(S)-oxan-4-yl(phenyl)methyl]-3,8,10-triazatricyclo[7.4.0.0^2,^7]trideca-1(9),2(7),3,5,10,12-hexaen-11-yl]ethan-1-one]",< 10
19,"[2H]C([2H])([2H])c1nnn(C)c1-c1cc2c(cn1)c1ncc(C(C)(C)O)cc1n2[C@H](c1ccccc1)C1CCOCC1 [Example 364, 2-{11-[4-(^2H3)Methyl-1-methyl-1H-1,2,3-triazol-5-yl]-8-[(S)-(oxan-4-yl)(phenyl)methyl]-3,8,12-triazatricyclo[7.4.0.0^2,^7]trideca-1(9),2,4,6,10,12-hexaen-5-yl}propan-2-ol]",< 10
20,"COc1nccc2c3ncc(-c4c(C)nnn4C)cc3n(C(c3ccccc3F)C3CCOCC3)c12 (single isomer, unassigned) [Example 19, 5-(Dimethyl-1H-1,2,3-triazol-5-yl)-8-[(2-fluorophenyl)(oxan-4-yl)methyl]-10-methoxy-3,8,11-triazatricyclo[7.4.0.0^2,^7]trideca-1(13),2(7),3,5,9,11-hexaene]",< 10
21,"Cc1nnn(C)c1-c1cnc2c3ccc(S(N)(=O)=O)nc3n([C@H](c3ccccc3)C3CCOCC3)c2c1 [Example 195, 5-(Dimethyl-1H-1,2,3-triazol-5-yl)-8-[(S)-oxan-4-yl(phenyl)methyl]-3,8,10-triazatricyclo[7.4.0.0^2,^7]trideca-1(9),2(7),3,5,10,12-hexaene-11-sulfonamide]",< 10
22,"[2H]C([2H])([2H])c1nnn(C)c1-c1cnc2c3c(OCC4CC4)ncc(S(C)(=O)=O)c3n([C@H](c3ccc(F)cc3)C3CCOCC3)c2c1 [Example 78, 13-(Cyclopropylmethoxy)-8-[(S)-(4-fluorophenyl)(oxan-4-yl)methyl]-10-methanesulfonyl-5-[4-(^2H3)methyl-1-methyl-1H-1,2,3-triazol-5-yl]-3,8,12-triazatricyclo[7.4.0.0^2,^7]trideca-1(13),2(7),3,5,9,11-hexaene]",< 1
23,"Cc1nnn(C)c1-c1cnc2c3ccc(NC(=O)C(C)C)nc3n([C@H](c3ccccc3F)C3CCOCC3)c2c1 [Example 275, N-[5-(Dimethyl-1H-1,2,3-triazol-5-yl)-8-[(S)-(2-fluorophenyl)(oxan-4-yl)methyl]-3,8,10-triazatricyclo[7.4.0.0^2,^7]trideca-1(13),2(7),3,5,9,11-hexaen-11-yl]-2-methylpropanamide]",< 10
24,"CCOc1ncc(Cl)c2c1c1ncc(-c3c(C)nnn3C)cc1n2[C@H](c1ccccc1)C1CCOCC1 [Example 43, 10-Chloro-5-(dimethyl-1H-1,2,3-triazol-5-yl)-13-ethoxy-8-[(S)-oxan-4-yl(phenyl)methyl]-3,8,12-triazatricyclo[7.4.0.0^2,^7]trideca-1(13),2(7),3,5,9,11-hexaene]",< 1
